Patent US20160090556A1, “PRODUCTS COMPRISING MALODOR REDUCTION MATERIALS” (The Procter & Gamble Company, priority 2014, published 2016)
Where two headings read alike, the source gives them in different places.

Experiment: Liquid dish neat product liquid-air partition coefficient
Type: physicochemical
[1] = class code letter within Comment Code
[2] = codes K/L of the Comment Code, Table 1

Question: For `CCC(=O)OCCc1ccccc1` [Material 835], which “Comment Code: Log of liquid dish neat product liquid-air partition coefficient” value (from here on “Comment Code: Log”) (code letters K, L) is on record?
Answer: K (Log of liquid dish neat product liquid-air partition coefficient greater than or equal to −7)

Question: Which “Log of liquid dish neat product liquid-air partition coefficient (Comment Code K/L)” value (“Log … (Comment Code K/L)” below) does the source give for `CC(C)c1cccc(C(C)CC=O)c1` (stereo not shown) [Material 914] here?
Answer: K (Log of liquid dish neat product liquid-air partition coefficient greater than or equal to −7)

Question: For `CC1C(C)(C)C2=C(C3OC(C)(C)OC3CC2)C1(C)C` (stereo not shown) [Material 23], which “Log … (Comment Code K/L)” value [1] is on record?
Answer: K (Log of liquid dish neat product liquid-air partition coefficient greater than or equal to −7)

Question: What about the “Comment Code: Log” value (code letters K, L) of the same compound?
Answer: K (Log of liquid dish neat product liquid-air partition coefficient greater than or equal to −7)

Question: Which “Log … (Comment Code K/L)” value [1] does the source give for `CC(C=O)Cc1ccc(C(C)(C)C)cc1` (stereo not shown) [Material 162] here?
Answer: K (Log of liquid dish neat product liquid-air partition coefficient greater than or equal to −7)

Question: Which “Log … (Comment Code K/L)” value does the source give for `CCOCOC1CCCCCCCCCCC1` [Material 607] here?
Answer: K (Log of liquid dish neat product liquid-air partition coefficient greater than or equal to −7)

Question: What does the source list for `C=C1CC[C@@H]2[C@H]([C@H]3[C@H]1CC[C@]3(C)O)C2(C)C` [Material 1035]?
Answer: Log of liquid dish neat product liquid-air partition coefficient (Comment Code K/L): K (Log of liquid dish neat product liquid-air partition coefficient greater than or equal to −7); Comment Code: Log of liquid dish neat product liquid-air partition coefficient (code letters K, L): K (Log of liquid dish neat product liquid-air partition coefficient greater than or equal to −7)

Question: With `CC1=CCC(C(C)CC2CCCC2=O)CC1` (stereo not shown) [Material 69] as the compound, how does the “Log … (Comment Code K/L)” value [1] read?
Answer: K (Log of liquid dish neat product liquid-air partition coefficient greater than or equal to −7)

Question: With `C=CCCCCCCCCC(=O)OCCCC` [Material 599] as the compound, how does the “Log … (Comment Code K/L)” value read?
Answer: K (Log of liquid dish neat product liquid-air partition coefficient greater than or equal to −7)

Question: With `C=C1CCCC(C)(C)C1C=CC(C)=O` (stereo not shown) [Material 324] as the compound, how does the “Log … (Comment Code K/L)” value [1] read?
Answer: K (Log of liquid dish neat product liquid-air partition coefficient greater than or equal to −7)

Question: For `C=CCCCCCCCCO` [Material 470], which “Log … (Comment Code K/L)” value [1] is on record?
Answer: K (Log of liquid dish neat product liquid-air partition coefficient greater than or equal to −7)

Question: For `Cc1cc(O)cc(C)c1Cl` [Material 557], which “Comment Code: Log” value (code letters K, L) is on record?
Answer: K (Log of liquid dish neat product liquid-air partition coefficient greater than or equal to −7)

Question: Which “Comment Code: Log” value (code letters K, L) does the source give for `CCOC(=O)OC1CCCCC1C(C)(C)C` (stereo not shown) [Material 355] here?
Answer: K (Log of liquid dish neat product liquid-air partition coefficient greater than or equal to −7)

Question: Which “Comment Code: Log” value (code letters K, L) does the source give for `CC(=O)CCC1C(C)=CCCC1(C)C` (stereo not shown) [Material 448] here?
Answer: K (Log of liquid dish neat product liquid-air partition coefficient greater than or equal to −7)

Question: For `CC1C(C)(C)C2CCC3CC(C)(C)OC3C2C1(C)C` (stereo not shown) [Material 680], which “Log … (Comment Code K/L)” value is on record?
Answer: K (Log of liquid dish neat product liquid-air partition coefficient greater than or equal to −7)

Question: And the “Comment Code: Log” value (code letters K, L)?
Answer: K (Log of liquid dish neat product liquid-air partition coefficient greater than or equal to −7)

Question: Which “Comment Code: Log” value (code letters K, L) does the source give for `CCCc1ccc(O)c(OC)c1` [Material 440] here?
Answer: K (Log of liquid dish neat product liquid-air partition coefficient greater than or equal to −7)

Question: With `C=Cc1ccc(O)cc1` [Material 789] as the compound, how does the “Comment Code: Log” value (code letters K, L) read?
Answer: K (Log of liquid dish neat product liquid-air partition coefficient greater than or equal to −7)

Question: With `CCCCCCCCCC(=O)OCC` [Material 397] as the compound, how does the “Log … (Comment Code K/L)” value [1] read?
Answer: K (Log of liquid dish neat product liquid-air partition coefficient greater than or equal to −7)

Question: For `CCC(C)(O)/C=C/C=C(C)C` (stereo not shown) [Material 81], which “Comment Code: Log” value (code letters K, L) is on record?
Answer: K (Log of liquid dish neat product liquid-air partition coefficient greater than or equal to −7)

Question: Which results are given for `CC(=O)C1=C(C)[C@@H]2C[C@@]3(C1)[C@H](C)CC[C@H]3C2(C)C` [Material 1129]?
Answer: Comment Code: Log of liquid dish neat product liquid-air partition coefficient (code letters K, L): K (Log of liquid dish neat product liquid-air partition coefficient greater than or equal to −7); Comment Code: Log of liquid dish neat product liquid-air partition coefficient [2]: K (Log of liquid dish neat product liquid-air partition coefficient greater than or equal to −7)

Question: With `Cc1cccc(CCO)c1` [Material 928] as the compound, how does the “Log … (Comment Code K/L)” value read?
Answer: K (Log of liquid dish neat product liquid-air partition coefficient greater than or equal to −7)

Question: Which results are given for `CC1C(=O)CC2(C)CCCC(C)(C)C23CC13` (stereo not shown) [Material 804]?
Answer: Log of liquid dish neat product liquid-air partition coefficient (Comment Code K/L): K (Log of liquid dish neat product liquid-air partition coefficient greater than or equal to −7); Comment Code: Log of liquid dish neat product liquid-air partition coefficient (code letters K, L): K (Log of liquid dish neat product liquid-air partition coefficient greater than or equal to −7)

Question: For `C=CCOC(=O)COCCC(C)C` [Material 748], which “Log … (Comment Code K/L)” value is on record?
Answer: K (Log of liquid dish neat product liquid-air partition coefficient greater than or equal to −7)

Question: For `COc1cc(C)cc(O)c1` [Material 811], which “Comment Code: Log” value (code letters K, L) is on record?
Answer: K (Log of liquid dish neat product liquid-air partition coefficient greater than or equal to −7)

Question: For `CCCCCCCCC=CC=O` [Material 828], which “Log … (Comment Code K/L)” value is on record?
Answer: K (Log of liquid dish neat product liquid-air partition coefficient greater than or equal to −7)

Question: Which “Log … (Comment Code K/L)” value [1] does the source give for `C=CCc1ccc(OC)c(OC)c1` [Material 110] here?
Answer: K (Log of liquid dish neat product liquid-air partition coefficient greater than or equal to −7)

Question: For `CC1=CCC(/C=C/C(C)(C)C(C)O)C1(C)C` (stereo not shown) [Material 985], which “Log … (Comment Code K/L)” value is on record?
Answer: K (Log of liquid dish neat product liquid-air partition coefficient greater than or equal to −7)

Question: With `C[C@H]1[C@@H]2C[C@H](C[C@@]13C=CC(=O)CC3)C2(C)C` [Material 1143] as the compound, how does the “Comment Code: Log” value (code letters K, L) read?
Answer: K (Log of liquid dish neat product liquid-air partition coefficient greater than or equal to −7)

Question: What about the “Comment Code: Log” value [2] of the same compound?
Answer: K (Log of liquid dish neat product liquid-air partition coefficient greater than or equal to −7)

Question: Which “Comment Code: Log” value [2] does the source give for `COCc1ccc(O)c(OC)c1` [Material 1113] here?
Answer: K (Log of liquid dish neat product liquid-air partition coefficient greater than or equal to −7)

Question: For `CCC(C)c1nccnc1OC` (stereo not shown) [Material 845], which “Comment Code: Log” value (code letters K, L) is on record?
Answer: K (Log of liquid dish neat product liquid-air partition coefficient greater than or equal to −7)

Question: Which “Comment Code: Log” value (code letters K, L) does the source give for `CC(C)(O)CCC1CCCCC1` [Material 496] here?
Answer: K (Log of liquid dish neat product liquid-air partition coefficient greater than or equal to −7)

Question: For `CC1=CCC(O)(C(C)C)CC1` (stereo not shown) [Material 800], which “Log … (Comment Code K/L)” value is on record?
Answer: K (Log of liquid dish neat product liquid-air partition coefficient greater than or equal to −7)

Question: For `CC=CC(=O)C1C(C)=CCCC1(C)C` (stereo not shown) [Material 880], which “Comment Code: Log” value (code letters K, L) is on record?
Answer: K (Log of liquid dish neat product liquid-air partition coefficient greater than or equal to −7)

Question: For `c1ccc(CCCc2ccccn2)cc1` [Material 497], which “Log … (Comment Code K/L)” value [1] is on record?
Answer: K (Log of liquid dish neat product liquid-air partition coefficient greater than or equal to −7)

Question: For `CC(=CCC1CC=C(C)C1(C)C)CO` (stereo not shown) [Material 908], which “Log … (Comment Code K/L)” value is on record?
Answer: K (Log of liquid dish neat product liquid-air partition coefficient greater than or equal to −7)

Question: Which “Comment Code: Log” value (code letters K, L) does the source give for `COC(C)(C)CCCC(C)C=O` (stereo not shown) [Material 125] here?
Answer: K (Log of liquid dish neat product liquid-air partition coefficient greater than or equal to −7)

Question: Which “Comment Code: Log” value (code letters K, L) does the source give for `CC(O)CCC1C(C)CCCC1(C)C` (stereo not shown) [Material 1052] here?
Answer: K (Log of liquid dish neat product liquid-air partition coefficient greater than or equal to −7)

Question: With `CC1(C)CCCC2=C1CC(C=O)CC2` (stereo not shown) [Material 486] as the compound, how does the “Log … (Comment Code K/L)” value [1] read?
Answer: K (Log of liquid dish neat product liquid-air partition coefficient greater than or equal to −7)

Question: For `CC1CC2CCC3C(C2O1)C(C)(C)C(C)C3(C)C` (stereo not shown) [Material 1097], which “Log … (Comment Code K/L)” value is on record?
Answer: K (Log of liquid dish neat product liquid-air partition coefficient greater than or equal to −7)

Question: And the “Comment Code: Log” value (code letters K, L)?
Answer: K (Log of liquid dish neat product liquid-air partition coefficient greater than or equal to −7)

Question: For `CC1=CC(C)C2(CCCC(C)(C)C2=O)CC1` (stereo not shown) [Material 1022], which “Log … (Comment Code K/L)” value is on record?
Answer: K (Log of liquid dish neat product liquid-air partition coefficient greater than or equal to −7)

Question: And the “Comment Code: Log” value (code letters K, L)?
Answer: K (Log of liquid dish neat product liquid-air partition coefficient greater than or equal to −7)

Question: With `CCCCCCCCCC(C)C(OC)OC` (stereo not shown) [Material 101] as the compound, how does the “Log … (Comment Code K/L)” value [1] read?
Answer: K (Log of liquid dish neat product liquid-air partition coefficient greater than or equal to −7)

Question: For `CC(C)(C)c1ccc(CC=O)cc1` [Material 994], which “Comment Code: Log” value (code letters K, L) is on record?
Answer: K (Log of liquid dish neat product liquid-air partition coefficient greater than or equal to −7)

Question: With `c1ccc(CCOC2CCCCC2)cc1` [Material 953] as the compound, how does the “Log … (Comment Code K/L)” value read?
Answer: K (Log of liquid dish neat product liquid-air partition coefficient greater than or equal to −7)

Question: With `CC(C=O)Cc1ccc2c(c1)OCO2` (stereo not shown) [Material 288] as the compound, how does the “Log … (Comment Code K/L)” value [1] read?
Answer: K (Log of liquid dish neat product liquid-air partition coefficient greater than or equal to −7)

Question: With `C=CC(O)(CC)CCC=C(C)C` (stereo not shown) [Material 390] as the compound, how does the “Log … (Comment Code K/L)” value [1] read?
Answer: K (Log of liquid dish neat product liquid-air partition coefficient greater than or equal to −7)

Question: With `O=C1CCC=CCCCCCCCCCC1` [Material 371] as the compound, how does the “Log … (Comment Code K/L)” value [1] read?
Answer: K (Log of liquid dish neat product liquid-air partition coefficient greater than or equal to −7)

Question: For `C=CC1(C)CCC(C(C)(C)O)O1` (stereo not shown) [Material 155], which “Log … (Comment Code K/L)” value [1] is on record?
Answer: K (Log of liquid dish neat product liquid-air partition coefficient greater than or equal to −7)

Question: Which “Log … (Comment Code K/L)” value [1] does the source give for `C=CC(C)=CCCC(C)(C)O` [Material 43] here?
Answer: K (Log of liquid dish neat product liquid-air partition coefficient greater than or equal to −7)
